Square brackets hold non-standard residues; d marks the D form. Primed or numbered codes have the meaning given here. Peptide text beside a SMILES is read from it. PEG12 = NCCOCCOCCOCCOCCOCCOCCOCCOCCOCCOCCOCCOCCC(=O)O; PEG11′ = not defined here
Columns and labels:
H358 Cells = assay: SRI_MGS2_V4 uptake profile (effective dose, stoichiometry, rate of uptake); format: cell-based
From the text: (§1) 1. Example 1: Effective Dose, Stoichiometry, and Rate of Uptake for MGS 2

H1993 Cells [1] = assay: as above; format: cell-based
From the text: as §1

H2009 Cells = assay: as above; format: cell-based
From the text: as §1

H1299 Cells = assay: as above; format: cell-based
From the text: as §1

[2] = test system: Carcinomas and Solid Tumors; assay: In vivo targeting of MGS; settings: Table 3; homing to target cell in an animal model
From the text: (§2) The FOX-Three Platform has already been validated for targeting of cells and subcellular components. A number of validated MGSs are in various stages of development (Table 1) for a variety of cell targeting systems. Methods of conjugating a variety of payloads to the peptide MGSs have been established without disrupting their targeting ability. […] The FOX-Three screening process was recently refined to include subcellular location targeting as a selection criteria. MGSs have been isolated that accumulate in lysosomes, autophagosomes, and Golgi inside cancer cells, as well as target the plasma membrane.

[3] = test system: Non-Small Cell Lung Cancer; assay: Cellular location of MGS, carcinomas and solid tumors; format: cell-based; settings: for MSG Code and Cellular Location: Table 2, Intracellular = uptake confirmed, exact compartment not determined; for Cellular Location: Table 3, Carcinomas and Solid Tumors
From the text: (§3) The FOX-Three platform is based on established phage display libraries containing 10^9-10^12 candidate peptide-based MGS members that can be rapidly screened against target cells and subcellular systems to identify specifically targeted MGSs (FIG. 2). Peptides are a well-understood class of biomolecule that are readily synthesized by biological processes and through man-made chemical processes. […] It can be applied to any cell type, regardless of knowledge about the molecular features of that cell, producing a lead MGS in 2-4 weeks. Selected peptide-based MGSs are then readily engineered for optimal performance.
as §2

Dendritic Cells = assay: Cellular location of MGS, dendritic cells; format: cell-based; settings: Table 2
From the text: as §3

Lymphoma Cells = assay: Cellular location of MGS, lymphoma and leukemia; format: cell-based; settings: Table 2
From the text: as §3

Cardiomyocytes = assay: Cellular location of MGS, cardiomyocytes; format: cell-based; settings: Table 2
From the text: as §3

H1993 Cells [4] = assay: siRNA internalization with and without MGS (FIG. 5); format: cell-based; settings: SA-647, 5′-Biotinylated siRNA+SA-647, 3′-Biotinylated siRNA+SA-647, alone or conjugated to the MGS
Protocol: With this objective, novel MGSs were applied to facilitate cell-specific delivery of siRNA. As previously mentioned, these MGSs have the unique ability to bind to specific epithelial-derived cancer cell types, and upon binding, triggers rapid internalization and trafficking to specific subcellular locations. The chemically optimized MGSs have 1-2 nM affinities for their cellular targets, serum stability greater than 48 hours, and approximately 50-1000-fold specificity for targeted cancer cells over normal control cells. […] Internalization experiments were first performed using H1993 cells. For this set of experiments, the group of bars at the far right are 5′-Biotinylated siRNA+SA-647 and 3′-Biotinylated siRNA+SA-647 without MGS. The middle and far left bar groups show SA-647, 5′-Biotinylated siRNA+SA-647, and 3′-Biotinylated siRNA+SA-647 conjugated to a first MGS (SRI_MGS1_V4, right) and a second MGS (SRI_MGS2_V4, middle).

Molecule: CC(=O)N[C@@H](Cc1ccc(O)cc1)C(=O)N[C@@H](C)C(=O)N[C@@H](C)C(=O)N[C@@H](Cc1c[nH]c2ccccc12)C(=O)N1CCC[C@H]1C(=O)N[C@@H](C)C(=O)N[C@@H](CO)C(=O)NCC(=O)N[C@@H](C)C(=O)N[C@@H](Cc1c[nH]c2ccccc12)C(=O)N[C@H](C(=O)NCCOCCOCCOCCOCCOCCOCCOCCOCCOCCOCCOCCOCCC(=O)N[C@@H](CS)C(N)=O)[C@@H](C)O [SRI_MGS2_V4, CH3CO-YAAWPASGAWT-PEG11-C-NH2] (Ac-YAAWPASGAWT[PEG12]C-NH2)
- Molecules Internalized, 6 H (H358 Cells; H358 cells, 6 H with constant incubation of 20 nM MGS): 97100 ± 4830 molecules
- Saturation (molecules) (H358 Cells; H358 cells, average number of MGS molecules internalized per cell at saturation concentration at 1 H): 99900 ± 9640 molecules
- t1/2 (H358 Cells; H358 cells, rate of uptake): 11 min
- Specificity (H358 Cells; ratio of MGS uptake on H358 vs. normal human bronchial epithelial cell line (HBEC)): 1100
- Molecules Internalized, 6 H (H1993 Cells [1]; H1993 cells, 6 H with constant incubation of 20 nM MGS): 134300 ± 6300 molecules
- Saturation (molecules) (H1993 Cells [1]; H1993 cells, average number of MGS molecules internalized per cell at saturation concentration at 1 H): 141600 ± 28200 molecules
- t1/2 (H1993 Cells [1]; H1993 cells, rate of uptake): 12 min
- Specificity (H1993 Cells [1]; ratio of MGS uptake on H1993 vs. normal human bronchial epithelial cell line (HBEC)): 2300
- Molecules Internalized, 6 H (H2009 Cells; H2009 cells, 6 H with constant incubation of 20 nM MGS): 49500 ± 2230 molecules
- Saturation (molecules) (H2009 Cells; H2009 cells, average number of MGS molecules internalized per cell at saturation concentration at 1 H): 68300 ± 3030 molecules
- t1/2 (H2009 Cells; H2009 cells, rate of uptake): 13 min
- Specificity (H2009 Cells; ratio of MGS uptake on H2009 vs. normal human bronchial epithelial cell line (HBEC)): 560
- Molecules Internalized, 6 H (H1299 Cells; H1299 cells, 6 H with constant incubation of 20 nM MGS): 125500 ± 5430 molecules
- Saturation (molecules) (H1299 Cells; H1299 cells, average number of MGS molecules internalized per cell at saturation concentration at 1 H): 112800 ± 15500 molecules
- t1/2 (H1299 Cells; H1299 cells, rate of uptake): 37 min
- Specificity (H1299 Cells; ratio of MGS uptake on H1299 vs. normal human bronchial epithelial cell line (HBEC)): 1400

Molecule: RGDLATLRQLAQEDGVVGVR (MGS peptide) [MGS_H2009.1]
- In Vivo Targeting [2]: Yes
- MSG Code and Cellular Location [3]: MGS_H2009.1_Golgi
- Cellular Location [3]: Golgi

Molecule: TWTDFGQWPWPFGAEGTRAF (MGS peptide) [MGS_H1993.4]
- MSG Code and Cellular Location [3]: MGS_H1993.4_Pre-mitotic cells

Molecule: EAMNSAEQSAAVVQWEKRRI (MGS peptide) [MGS_H460.1]
- MSG Code and Cellular Location [3]: MGS_H460.1_PlasmaMembrane

Molecule: YAAWPASGAWTGTAPCSAGT (MGS peptide) [MGS_1299.2]
- In Vivo Targeting [2]: Yes
- MSG Code and Cellular Location [3]: MGS_H1299.2_Intracellular
- Cellular Location [3]: Lysosome

Molecule: FEEFYSRQSNTIPYPQQYKG (MGS peptide) [MGS_H2009.5]
- MSG Code and Cellular Location [3]: MGS_H2009.5_ER/Lysosome

Molecule: SVEYWGERMYYDVMESLGFS (MGS peptide) [MGS_H1993.1]
- MSG Code and Cellular Location [3]: MGS_H1993.1_Lysosome

Molecule: GPEDTSRAPENQQKTFHRRW (MGS peptide) [MGS_XS52.1]
- MSG Code and Cellular Location (Dendritic Cells): MGS_XS52.1_Intacellular

Molecule: ATEPRKQYATPRVFWTDAPG (MGS peptide) [MGS_HCC15.1]
- In Vivo Targeting [2]: Yes
- MSG Code and Cellular Location [3]: MGS_HCC15.1_Intracellular
- Cellular Location [3]: Lysosome

Molecule: LQWRRDDNVHNFGVWARYRL (MGS peptide) [MGS_1299.3]
- In Vivo Targeting [2]: Yes
- MSG Code and Cellular Location [3]: MGS_H1299.3_Autophagosomes
- Cellular Location [3]: Autophagasome

Molecule: MTVCNASQRQAHAQATAVSL (MGS peptide) [MGS_A549.1]
- MSG Code and Cellular Location [3]: MGS_A549.1_Intracellular

Molecule: VSQTMRQTAVPLLWFWTGSL (MGS peptide) [MGS_H1299.1]
- MSG Code and Cellular Location [3]: MGS_H1299.1_Intracellular

Molecule: WLSEAGPVVTVRALRGTGSW (MGS peptide) [MGS_PCM.1]
- MSG Code and Cellular Location (Lymphoma Cells): MGS_PCM.1_ Plasma Membrane
- MSG Code and Cellular Location (Cardiomyocytes): MGS_PCM.1_Intracellular

Molecule: EHPWFNMWSWATQVQE (MGS peptide) [MGS_H2009.2]
- MSG Code and Cellular Location [3]: MGS_H2009.2_Lysosome
- Cellular Location [3]: Lysosome

Molecule: KSREHVNNSACPSKRITAAL (MGS peptide) [MGS_A20.2]
- MSG Code and Cellular Location (Lymphoma Cells): MGS_A20.2_ Plasma Membrane

Molecule: SADWFQGPAEWLLEGWMGPL (MGS peptide) [MGS_H1993.6]
- MSG Code and Cellular Location [3]: MGS_H1993.6_Intracellular

Molecule: SAKTAVSQRVWLPSHRGGEP (MGS peptide) [MGS_A20.1]
- MSG Code and Cellular Location (Lymphoma Cells): MGS_A20.1_PlasmaMembrane

Molecule: MDGATWWTQLDPLLVWEGET (MGS peptide) [MGS_H1993.5]
- MSG Code and Cellular Location [3]: MGS_H1993.5_Intracellular

Molecule: CH3CO-RGDLATLRQL-PEG11-YC-NH2 (Ac-RGDLATLRQL[PEG11′]YC-NH2) [SRI_MGS1_V4]
- molecules internalized per cell (H1993 Cells [4]): approximately 25000 molecules internalized per cell

Molecule: FHAVPQSFYTAP (MGS peptide) [MGS_HCC15.2]
- In Vivo Targeting [2]: Yes
- MSG Code and Cellular Location [3]: MGS_HCC15.2_Lysosomal
- Cellular Location [3]: Lysosome

Molecule: AHTIDDEWASYHMQQWNSPP (MGS peptide) [MGS_H2009.4]
- MSG Code and Cellular Location [3]: MGS_H2009.4_Golgi/ER

Molecule: YPGSPTQYPSSMHEYHSSSE (MGS peptide) [MGS_H2009.3]
- MSG Code and Cellular Location [3]: MGS_H2009.3_Lysosome

Molecule: FAAKRAEWWDPGQLWDAVWN (MGS peptide) [MGS_H1993.2]
- MSG Code and Cellular Location [3]: MGS_H1993.2_Intracellular

Molecule: QEALEEWFWKMMPWSGPSGQ (MGS peptide) [MGS_H1993.3]
- MSG Code and Cellular Location [3]: MGS_H1993.3_Intracellular
